Consider four compounds from patent US9044388B2, “Dry eye treatment” (Ocular Research of Boston, Inc., priority 2005, dated 2015).

For data set [1], the system named is eye. Put plainly: Subjective sensation / stinging of emulsions and their surfactants on the eye. The format is in vivo, human. The note with it: higher concentration as sole primary surfactant. On the procedure:
The subjective sensation realized with both formulations was evaluated as comfortable, and without any form of adverse sensation.

The test system of another data set is ocular surface. Put plainly: Evaluation of comfort on the eye (sensation after one drop). The format is in vivo, human. Particulars: even in concentrations ≦0.10%. On the procedure: The vehicle used for all formulations was Unisol 4, a buffered saline solution marketed by Alcon Laboratories, Fort Worth, Tex. Unisol 4 had previously been studied and found to be the most comfortable normal saline product for use on the ocular surface. It was therefore used as a vehicle for the test formulations, and was also used as a control. A drop of each of the 5 test formulations was placed on to the ocular surfaces of each subject, utilizing a 15 ml dropper container that delivered a drop of 40 μl to the ocular surface. […] The results obtained with 6 subjects, all of whom evaluated each of the test formulation on two different days are summarized in Table 3.

For data set [2] the following is noted: result in words; cited from earlier work.
Data set [3] relates to eye. Particulars: in vivo; cited from earlier work.

On to `CCCCCCCC/C=C\CCCCCCCC(=O)OCCOCC(OCCO)C1OCC(OCCO)C1OCCO` (stereo not shown) [Polysorbate-80], for which the “effect of higher surfactant concentration on the eye” value in the data set with eye [1] was “led to stinging on the eye”. Regarding sorbitan monolaurate [Span 20], the “sting when applied to the eye and ocular surfaces” value in the data set on ocular surface is given as “sting”. Take `CCCCCCCCCCCCCCCCCC(=O)OCC(O)CO` (stereo not shown) [GMS, glycerol monostearate]: in data set [2], the solubility entry was “oil soluble”. polyoxyethylene (40) stearate [Myrj-52]: in the data set on eye [3], the “ocular discomfort on increasing the concentration” value was “significant stinging”.
